{"source": "patent US6525001B1", "about": "“Substituted pyrimidine and pyridine herbicides” (Mid-American Commercialization Corporation, priority 1997, dated 2003)", "format_in_all_cases": "in vivo", "key": {"soybean (Glycine max)": {"test_system": "soybean (Glycine max)", "experiment": "Test C", "details": "PREEMERGENCE"}, "[1]": {"test_system": "bermudagrass (Cynodon dactylon)", "experiment": "Test E pre-/postemergence/post directed", "from_the_text": "(§1) Seeds, tubers, or plant parts of alexandergrass (Brachiaria plantaginea), annual bluegrass (Poa annua), arrowleaf sida (Sida rhombifolia), barnyardgrass (Echinochloa crus-galli), bermudagrass (Cynodon dactylon), citrus (Citrus sinensis), common chickweed (Stellaria media), common purslane (Portulaca oleracea), common ragweed (Ambrosia elatior), common groundsel (Senecio vulgaris), dallisgrass (Paspalum dilatatum), goosegrass (Eleusine indica), green foxtail (Setaria viridis), guineagrass (Panicum maximum), itchgrass (Rottboellia exaltata), johnson grass (Sorghum halepense), kochia (Kochia scoparia), large crabgrass (Digitaria sanguinalis), leafy spurge (Euphorbia esula), pitted morningglory (Ipomoea lacunosa), purple nutsedge (Cyperus rotundus), quackgrass (Agropyron repens), Russian thistle (Salsola kali), sandbur (Cenchrus echinatus), sourgrass (Trichachne insularis), Spanishneedles (Bidens bipinnata), sugarcane (Saccharum officinarum), surinam grass (Brachiaria decumbens) and tall mallow (Malva sylvestris) were planted into greenhouse pots of flats containing greenhouse planting medium. Plant species were grown grown in separate pots or individual compartments. Preemergence applications were made within one day of planting the seed or plant part. Postemergence applications were applied when the plants were in the two to four leaf stage (three to twenty cm).\n(§2) Test chemicals were formulated in a non-phytotoxic solvent mixture which included a surfactant and applied preemergence to the soil surface, postemergence to the plants or as a post directed spray to plants and soil at the base of the target species. Untreated control plants and treated plants were placed in the greenhouse and visually evaluated for injury 13 to 21 days after herbicide application. Plant response ratings, summarized in Table E, are based on a 0 to 100 scale where 0 is no injury and 100 is complete control. A dash (−) response means no test result."}, "[2]": {"test_system": "Spanishneedles (Bidens bipinnata)", "experiment": "Test E pre-/postemergence/post directed", "from_the_text": "as §1, §2"}, "[3]": {"test_system": "alexandergrass (Brachiaria plantaginea)", "experiment": "Test E pre-/postemergence/post directed", "from_the_text": "as §1, §2"}, "[4]": {"test_system": "large crabgrass (Digitaria sanguinalis)", "experiment": "Test E pre-/postemergence/post directed", "from_the_text": "as §1, §2"}, "[5]": {"test_system": "johnson grass (Sorghum halepense)", "experiment": "Test E pre-/postemergence/post directed", "from_the_text": "as §1, §2"}, "[6]": {"test_system": "sandbur (Cenchrus echinatus)", "experiment": "Test E pre-/postemergence/post directed", "from_the_text": "as §1, §2"}, "[7]": {"test_system": "common ragweed (Ambrosia elatior)", "experiment": "Test E pre-/postemergence/post directed", "from_the_text": "as §1, §2"}, "[8]": {"test_system": "purple nutsedge (Cyperus rotundus)", "experiment": "Test E pre-/postemergence/post directed", "design": "key: 0 is no injury; 100 is complete control", "from_the_text": "as §1, §2"}, "[9]": {"test_system": "cocklebur (Xanthium strumarium)", "experiment": "Test C", "details": "PREEMERGENCE, Rate 140 g/ha"}, "[10]": {"test_system": "sourgrass (Trichachne insularis)", "experiment": "Test E pre-/postemergence/post directed", "design": "key: 0 is no effect; 100 is complete control", "outline": "(§3)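 Injury was scored visually on a 0 to 100 scale (100 = complete control) 13 to 21 days after treatment of greenhouse-grown plants. Test chemicals, in a surfactant-containing non-phytotoxic solvent, were sprayed onto soil within a day of planting, onto plants at the two to four leaf stage, or directed at the base of the plants.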"}, "[11]": {"test_system": "goosegrass (Eleusine indica)", "experiment": "Test E pre-/postemergence/post directed", "design": "key: 0 is no effect; 100 is complete control", "outline": "as §3"}, "[12]": {"test_system": "large crabgrass (Digitaria sanguinalis)", "experiment": "Test E pre-/postemergence/post directed", "design": "key: 0 is no effect; 100 is complete control", "details": "PREEMERGENCE", "outline": "as §3"}, "[13]": {"test_system": "common ragweed (Ambrosia elatior)", "experiment": "Test E pre-/postemergence/post directed", "design": "key: 0 is no effect; 100 is complete control", "details": "PREEMERGENCE", "outline": "as §3"}, "[14]": {"test_system": "common groundsel (Senecio vulgaris)", "experiment": "Test E pre-/postemergence/post directed", "design": "key: 0 is no effect; 100 is complete control", "details": "PREEMERGENCE", "outline": "as §3"}, "[15]": {"test_system": "hairy beggarticks (Bidens pilosa)", "experiment": "Test C", "design": "key: 0 was no effect; 100 was complete control", "details": "PREEMERGENCE"}, "[16]": {"test_system": "wild poinsettia (Euphorbia heterophylla)", "experiment": "Test C", "details": "PREEMERGENCE"}}}
{"compound": "COc1cnc(-c2ccc(C(F)(F)F)cc2)nc1Cc1cccc(C(F)(F)F)c1", "note": "[Compound 23]", "values": [{"measurement": "Plant response rating, Soybean", "setting": "soybean (Glycine max); Rate 35 g/ha", "value": 5}, {"measurement": "Plant response rating, Soybean", "setting": "soybean (Glycine max); Rate 70 g/ha", "value": 5}, {"measurement": "Plant response rating, Soybean", "setting": "soybean (Glycine max); Rate 140 g/ha", "value": 10}, {"measurement": "Plant response rating, Bermudagrass", "setting": "[1]; POSTEMERGENCE, Rate 250 g/ha", "value": 10}, {"measurement": "Plant response rating, Bermudagrass", "setting": "[1]; PREEMERGENCE, Rate 32 g/ha", "value": 90}, {"measurement": "Plant response rating, Bermudagrass", "setting": "[1]; PREEMERGENCE, Rate 64 g/ha", "value": 98}, {"measurement": "Plant response rating, Bermudagrass", "setting": "[1]; PREEMERGENCE, Rate 125 g/ha", "value": 98}, {"measurement": "Plant response rating, Bermudagrass", "setting": "[1]; PREEMERGENCE, Rate 250 g/ha", "value": 98}, {"measurement": "Plant response rating, Spanishneedles", "setting": "[2]; POSTEMERGENCE, Rate 250 g/ha", "value": 10}, {"measurement": "Plant response rating, Spanishneedles", "setting": "[2]; PREEMERGENCE, Rate 32 g/ha", "value": 60}, {"measurement": "Plant response rating, Spanishneedles", "setting": "[2]; PREEMERGENCE, Rate 64 g/ha", "value": 70}, {"measurement": "Plant response rating, Alexandergrass", "setting": "[3]; POSTEMERGENCE, Rate 250 g/ha", "value": 80}, {"measurement": "Plant response rating, Alexandergrass", "setting": "[3]; PREEMERGENCE, Rate 125 g/ha", "value": 85}, {"measurement": "Plant response rating, Alexandergrass", "setting": "[3]; PREEMERGENCE, Rate 250 g/ha", "value": 98}, {"measurement": "Plant response rating, Large crabgrass", "setting": "[4]; POSTEMERGENCE, Rate 250 g/ha", "value": 40}, {"measurement": "Plant response rating, Large crabgrass", "setting": "[4]; PREEMERGENCE, Rate 32 g/ha", "value": 98}, {"measurement": "Plant response rating, Large crabgrass", "setting": "[4]; PREEMERGENCE, Rate 64 g/ha", "value": 98}, {"measurement": "Plant response rating, Johnsongrass", "setting": "[5]; POSTEMERGENCE, Rate 250 g/ha", "value": 65}, {"measurement": "Plant response rating, Johnsongrass", "setting": "[5]; PREEMERGENCE, Rate 32 g/ha", "value": 70}, {"measurement": "Plant response rating, Johnsongrass", "setting": "[5]; PREEMERGENCE, Rate 64 g/ha", "value": 80}, {"measurement": "Plant response rating, Johnsongrass", "setting": "[5]; PREEMERGENCE, Rate 125 g/ha", "value": 80}, {"measurement": "Plant response rating, Johnsongrass", "setting": "[5]; PREEMERGENCE, Rate 250 g/ha", "value": 90}, {"measurement": "Plant response rating, Sandbur", "setting": "[6]; POSTEMERGENCE, Rate 250 g/ha", "value": 20}, {"measurement": "Plant response rating, Sandbur", "setting": "[6]; PREEMERGENCE, Rate 32 g/ha", "value": 85}, {"measurement": "Plant response rating, Sandbur", "setting": "[6]; PREEMERGENCE, Rate 64 g/ha", "value": 80}, {"measurement": "Plant response rating, Sandbur", "setting": "[6]; PREEMERGENCE, Rate 125 g/ha", "value": 80}, {"measurement": "Plant response rating, Sandbur", "setting": "[6]; PREEMERGENCE, Rate 250 g/ha", "value": 98}, {"measurement": "Plant response rating, Com. ragweed", "setting": "[7]; POSTEMERGENCE, Rate 250 g/ha", "value": 40}, {"measurement": "Plant response rating, Com. ragweed", "setting": "[7]; PREEMERGENCE, Rate 32 g/ha", "value": 50}, {"measurement": "Plant response rating, Com. ragweed", "setting": "[7]; PREEMERGENCE, Rate 64 g/ha", "value": 70}, {"measurement": "Plant response rating, Purple nutsedge", "setting": "[8]; POSTEMERGENCE, Rate 250 g/ha", "value": 0}, {"measurement": "Plant response rating, Purple nutsedge", "setting": "[8]; PREEMERGENCE, Rate 32 g/ha", "value": 0}, {"measurement": "Plant response rating, Purple nutsedge", "setting": "[8]; PREEMERGENCE, Rate 64 g/ha", "value": 0}, {"measurement": "Plant response rating, Purple nutsedge", "setting": "[8]; PREEMERGENCE, Rate 125 g/ha", "value": 0}, {"measurement": "Plant response rating, Purple nutsedge", "setting": "[8]; PREEMERGENCE, Rate 250 g/ha", "value": 0}, {"measurement": "Plant response rating, Cocklebur", "setting": "[9]", "value": 5}, {"measurement": "Plant response rating, Sourgrass", "setting": "[10]; POSTEMERGENCE, Rate 250 g/ha", "value": 30}, {"measurement": "Plant response rating, Sourgrass", "setting": "[10]; PREEMERGENCE, Rate 32 g/ha", "value": 98}, {"measurement": "Plant response rating, Sourgrass", "setting": "[10]; PREEMERGENCE, Rate 64 g/ha", "value": 98}, {"measurement": "Plant response rating, Sourgrass", "setting": "[10]; PREEMERGENCE, Rate 125 g/ha", "value": 100}, {"measurement": "Plant response rating, Sourgrass", "setting": "[10]; PREEMERGENCE, Rate 250 g/ha", "value": 100}, {"measurement": "Plant response rating, Goosegrass", "setting": "[11]; POSTEMERGENCE, Rate 250 g/ha", "value": 75}, {"measurement": "Plant response rating, Goosegrass", "setting": "[11]; PREEMERGENCE, Rate 32 g/ha", "value": 98}, {"measurement": "Plant response rating, Goosegrass", "setting": "[11]; PREEMERGENCE, Rate 64 g/ha", "value": 98}, {"measurement": "Plant response rating, Goosegrass", "setting": "[11]; PREEMERGENCE, Rate 125 g/ha", "value": 98}, {"measurement": "Plant response rating, Goosegrass", "setting": "[11]; PREEMERGENCE, Rate 250 g/ha", "value": 100}, {"measurement": "Plant response rating, Large crabgrass", "setting": "[12]; Rate 125 g/ha", "value": 100}, {"measurement": "Plant response rating, Large crabgrass", "setting": "[12]; Rate 250 g/ha", "value": 100}, {"measurement": "Plant response rating, Com. ragweed", "setting": "[13]; Rate 125 g/ha", "value": 100}, {"measurement": "Plant response rating, Com. ragweed", "setting": "[13]; Rate 250 g/ha", "value": 100}, {"measurement": "Plant response rating, Com. groundsel", "setting": "[14]; Rate 32 g/ha", "value": 100}, {"measurement": "Plant response rating, Com. groundsel", "setting": "[14]; Rate 64 g/ha", "value": 100}, {"measurement": "Plant response rating, Com. groundsel", "setting": "[14]; Rate 125 g/ha", "value": 100}, {"measurement": "Plant response rating, Com. groundsel", "setting": "[14]; Rate 250 g/ha", "value": 100}, {"measurement": "Plant response rating, H. beggarticks", "setting": "[15]; Rate 35 g/ha", "value": 50}, {"measurement": "Plant response rating, H. beggarticks", "setting": "[15]; Rate 70 g/ha", "value": 50}, {"measurement": "Plant response rating, H. beggarticks", "setting": "[15]; Rate 140 g/ha", "value": 100}, {"measurement": "Plant response rating, Wild poinsettia", "setting": "[16]; Rate 35 g/ha", "value": 5}, {"measurement": "Plant response rating, Wild poinsettia", "setting": "[16]; Rate 70 g/ha", "value": 5}, {"measurement": "Plant response rating, Wild poinsettia", "setting": "[16]; Rate 140 g/ha", "value": 10}]}
